Measured values reported in PubChem BioAssay (NCI).
Where “and” joins values, the source holds several entries; their conditions need not be identical. Identical values can stand only once.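 Briefly, cells in 96-well plates were exposed to five compound concentrations for 48 h, and endpoints were estimated by linear interpolation. At the GI50, growth is halved. TGI: concentration producing complete growth inhibition.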

What was measured:
Test in all cases: inhibition of tumour cell growth, NCI panel, 48 h
[1] = test system: UO-31 renal
[2] = test system: NCI/ADR-RES ovarian
[3] = test system: MOLT-4 leukemia
[4] = test system: PC-3 prostate
[5] = test system: NCI-H226 lung
[6] = test system: HOP-92 NSCLC
[7] = test system: NCI-H23 lung
[8] = test system: OVCAR-4 ovarian
[9] = test system: UACC-62 melanoma
[10] = test system: BT-549 breast

Row | SMILES | GI50 [1] | TGI [1] | GI50 [2] | TGI [2] | GI50 [3] | TGI [3] | GI50 [4] | TGI [4] | GI50 [5] | TGI [5] | GI50 [6] | TGI [6] | GI50 [7] | TGI [7] | GI50 [8] | TGI [8] | GI50 [9] | TGI [9] | TGI [10] | GI50 [10]
1 | Oc1ccc(/C=N/Nc2nc3ccccc3s2)c(O)c1 | 0.341 µM | 4.23 µM | 1.22 µM | > 100 µM | 2.24 µM | 88.1 µM | 4 µM | > 100 µM | 3.56 µM | 65.9 µM | 4.46 µM | > 100 µM | 3.03 µM | > 100 µM | 0.381 µM | 2.93 µM | 1.75 µM | 4.82 µM |  | 
2 | O=C1NC(=O)C2(CCC(O)C2)c2cc[n+]([O-])cc21 (centres undefined) |  | > 100 µM |  |  |  | > 100 µM |  | > 100 µM |  | > 100 µM |  | > 100 µM |  | > 100 µM |  | > 100 µM |  | > 100 µM | > 100 µM | 
3 | CCN(Cc1nc2cc(C(F)(F)F)ccc2nc1-c1ccccc1)c1ccc(OC)c(OC)c1 | 19.8 µM | 46.2 µM | 29.2 µM | > 100 µM | 11.8 µM | 52.1 µM | 7.33 µM | 22 µM | 13.2 µM | 29 µM | 15 µM | 30.4 µM | 13.5 µM | 34.2 µM | 41.2 µM | > 100 µM | 14.1 µM | 27.7 µM | 31.7 µM | 13.4 µM
4 | CC1CCC2C(C)C3C(CC4C5CC=C6CC(OC7OC(CO)C(O)C(OC8OC(CO)C(O)C(O)C8O)C7OC7OC(C)C(O)C(O)C7O)CCC6(C)C5CCC43C)N2C1 (centres undefined) | > 2.5 µg/mL | 14.5 µM and > 2.5 µg/mL | > 2.5 µg/mL | 34.8 µM and > 2.5 µg/mL | > 2.5 µg/mL | 60.9 µM and > 2.5 µg/mL | > 2.5 µg/mL | 28.5 µM and > 2.5 µg/mL | > 2.5 µg/mL | 44.3 µM and > 2.5 µg/mL | > 2.5 µg/mL | 33.6 µM and > 2.5 µg/mL | > 2.5 µg/mL | 29.8 µM and > 2.5 µg/mL | > 2.5 µg/mL | 20.3 µM and > 2.5 µg/mL | > 2.5 µg/mL | 27.7 µM and > 2.5 µg/mL | 31.9 µM and > 2.5 µg/mL | > 2.5 µg/mL
5 | CCCCSCc1nc2nc(Cl)c(Cl)nc2[nH]1 |  |  |  | 90.8 µM |  | 45.5 µM |  | > 100 µM |  | 62.7 µM |  | > 100 µM |  | 44.6 µM |  | > 100 µM |  | 29.5 µM | 79.4 µM | 
6 | CC(F)(F)c1cc(F)ccc1-c1sc2cc(O)ccc2c1Oc1ccc(/C=C/C(=O)O)cc1 | 12.9 µM | 31.5 µM | 6.66 µM | 40.1 µM | 10.3 µM | 50 µM | 7.7 µM | 24.7 µM | 5.78 µM | 25 µM | 11.1 µM | 27.3 µM | 15.2 µM | 37.4 µM | 12.1 µM | 33.2 µM | 6.06 µM | 22.9 µM | 27 µM | 6.46 µM
7 | Cc1ccc2[nH]c(C(=O)NN3C(=O)CSC34CCCC(C)C4)c(-c3ccccc3)c2c1 (centres undefined) | 0.0274 µM | 10.6 µM |  |  | 8.77 µM | 31.9 µM | 14.2 µM | 29.6 µM | 18.4 µM | 35.2 µM | 13.1 µM | 28.3 µM | 20 µM | 36 µM | 18.4 µM | 40.2 µM | 13.9 µM | 29.2 µM | 36.5 µM | 19.5 µM
